Source: patent US9012635B2, “Pyridone amides and analogs exhibiting anti-cancer and anti-proliferative activities” (Deciphera Pharmaceuticals, LLC, priority 2013, dated 2015)
Where a name gives a salt, the structure may show the parent alone.

Assays:
[1] = test system: EBC-1 cells; test: EBC-1 cell proliferation assay (resazurin); format: cell-based; settings: Homo sapiens, 67 h + 5 h resazurin, read-out: EBC1 Proliferation
Protocol: (§1) EBC-1 cells (catalog #JCRB0820) were obtained from the Japan Health Science Research Resources Bank, Osaka, Japan. Briefly, cells were grown in DMEM supplemented with 10% characterized fetal bovine serum (Invitrogen, Carlsbad, Calif.) at 37° C., 5% CO2, 95% humidity. Cells were allowed to expand until reaching 70-95% confluency at which point they were subcultured or harvested for assay use.
(§2) A serial dilution of test compound was dispensed into a 96-well black clear bottom plate (Corning, Corning, N.Y.). For each cell line, five thousand cells were added per well in 200 μL complete growth medium. Plates were incubated for 67 hours at 37° C., 5% CO2, 95% humidity. At the end of the incubation period 40 μL of a 440 μM solution of resazurin (Sigma, St. Louis, Mo.) in PBS was added to each well and incubated for an additional 5 hours at 37° C., 5% CO2, 95% humidity. Plates were read on a Synergy2 reader (Biotek, Winooski, Vt.) using an excitation of 540 nm and an emission of 600 nm. Data was analyzed using Prism software (GraphPad, San Diego, Calif.) to calculate IC50 values.

[2] = target: KDR kinase (Seq ID No. 3) (Homo sapiens, UniProt P35968, DEL940-989/E990V); test: KDR kinase assay (assays K1, K2, K3); format: biochemical; settings: enzymatic assay; variant K1, K2 or K3 not given
Protocol: The activity of KDR kinase was determined by following the production of ADP from the kinase reaction through coupling with the pyruvate kinase/lactate dehydrogenase system (e.g., Schindler et al. Science 2000, 289, pp. 1938-1942). In this assay, the oxidation of NADH (thus the decrease at A340 nm) was continuously monitored spectrophotometrically. The reaction mixture (100 μl) contained KDR (Seq ID No. 3, 1.5 nM to 7.1 nM, nominal concentration), polyE4Y (1 mg/mL), pyruvate kinase (3.5 units), lactate dehydrogenase (5.5 units), phosphoenolpyruvate (1 mM), and NADH (0.28 mM) in 60 mM Tris buffer containing 0.13% octyl-glucoside, 13 mM MgCl2, 6.8 mM DTT, test compound, and 3.5% DMSO at pH 7.5. The reaction was initiated by adding ATP (0.2 mM, final concentration). The absorption at 340 nm was continuously monitored for 3 h at 30° C. on a Polarstar Optima plate reader (BMG) or instrument of similar capacity. The reaction rate was calculated using the 1 h to 2 h time frame. Percent inhibition was obtained by comparison of reaction rate with that of a control (i.e., with no test compound). IC50 values were calculated from a series of percent inhibition values determined at a range of inhibitor concentrations using software routines as implemented in the GraphPad Prism software package.
KDR kinase assay K2 is the same as for assay K1 except that (1) a nominal concentration of 2.1 nM of enzyme was employed (2) the reaction was pre-incubated with test compound at 30° C. for 2 h prior to initiation with ATP and (3) 1.0 mM ATP (final concentration) was used to initiate the reaction.
KDR kinase assay K3 is the same as for assay K1 except that (1) a nominal concentration of 1.1 nM of enzyme was employed, (2) the buffer components per 100 μl reaction mixture were as follows: 75 mM Tris buffer containing 0.066% octyl-glucoside, 17 mM MgCl2, and 1% DMSO at pH 7.5, (3) the final concentration of DTT was 0.66 mM, (4) the reaction was pre-incubated with test compound at 30° C. for 1 h prior to initiation with ATP, and (5) 1.0 mM ATP (final concentration) was used to initiate the reaction.

[3] = test system: MKN-45 cells; test: MKN-45 cell proliferation assay (resazurin); format: cell-based; settings: Homo sapiens, 67 h + 5 h resazurin
Protocol: as §1, with “MKN-45” for “EBC-1”, “#JCRB0254)” for “#JCRB0820)”, “RPMI 1640 media” for “DMEM”
as §2, with “Corning, N.Y.). Five thousand cells” for “Corning, N.Y.). For each cell line, five thousand cells”, “well and plates were incubated for” for “well and incubated for”, “additional 5 h at 37°” for “additional 5 hours at 37°”

[4] = target: T1, c-MET kinase (Seq. ID No. 2) (Homo sapiens, UniProt P08581); test: c-MET kinase assay (pyruvate kinase/lactate dehydrogenase coupled, A340); format: biochemical; settings: enzymatic assay, 0.5 h pre-incubation, ATP 100 μM; read-out: cMET
T1 construct: c-MET (c-MET residues: 956-1390, from Invitrogen, catalogue #PV3143, 6 nM); purchased Invitrogen PV3143
Protocol: Activity of c-MET kinase (Seq. ID No. 2) was determined by following the production of ADP from the kinase reaction through coupling with the pyruvate kinase/lactate dehydrogenase system (e.g., Schindler et al. Science 2000, 289, pp. 1938-1942). In this assay, the oxidation of NADH (thus the decrease at A340 nm) was continuously monitored spectrophotometrically. The reaction mixture (100 μl) contained c-MET (c-MET residues: 956-1390, from Invitrogen, catalogue #PV3143, 6 nM), polyE4Y (1 mg/mL), MgCl2 (10 mM), pyruvate kinase (4 units), lactate dehydrogenase (0.7 units), phosphoenol pyruvate (1 mM), and NADH (0.28 mM) in 90 mM Tris buffer containing 0.25 mM DTT, 0.2% octyl-glucoside and 1% DMSO, pH 7.5. Test compounds were incubated with c-MET (Seq. ID No. 2) and other reaction reagents at 22° C. for 0.5 h before ATP (100 μM) was added to start the reaction. The absorption at 340 nm was monitored continuously for 2 hours at 30° C. on Polarstar Optima plate reader (BMG). The reaction rate was calculated using the 1.0 to 2.0 h time frame. Percent inhibition was obtained by comparison of reaction rate with that of a control (i.e., with no test compound). IC50 values were calculated from a series of percent inhibition values determined at a range of inhibitor concentrations using software routines as implemented in the GraphPad Prism software package.

[5] = target: T2, c-KIT kinase (Seq. ID No. 1) (Homo sapiens, UniProt P10721); test: c-KIT kinase assay (pyruvate kinase/lactate dehydrogenase coupled, A340); format: biochemical; settings: enzymatic assay, ATP 200 μM; read-out: cKIT
T2 construct: c-KIT (cKIT residues T544-V976, from ProQinase, 5.4 nM); purchased ProQinase
Protocol: Activity of c-KIT kinase (Seq. ID No. 1) was determined by following the production of ADP from the kinase reaction through coupling with the pyruvate kinase/lactate dehydrogenase system (e.g., Schindler et al. Science 2000, 289, pp. 1938-1942). In this assay, the oxidation of NADH (thus the decrease at A340 nm) was continuously monitored spectrophotometrically. The reaction mixture (100 μl) contained c-KIT (cKIT residues T544-V976, from ProQinase, 5.4 nM), polyE4Y (1 mg/mL), MgCl2 (10 mM), pyruvate kinase (4 units), lactate dehydrogenase (0.7 units), phosphoenol pyruvate (1 mM), and NADH (0.28 mM) in 90 mM Tris buffer containing 0.2% octyl-glucoside and 1% DMSO, pH 7.5. Test compounds were incubated with c-KIT (Seq. ID No. 1) and other reaction reagents at 22° C. for less than 2 min before ATP (200 μM) was added to start the reaction. The absorption at 340 nm was monitored continuously for 0.5 hours at 30° C. on Polarstar Optima plate reader (BMG). The reaction rate was calculated using the 0 to 0.5 h time frame. Percent inhibition was obtained by comparison of reaction rate with that of a control (i.e., with no test compound). IC50 values were calculated from a series of percent inhibition values determined at a range of inhibitor concentrations using software routines as implemented in the GraphPad Prism software package.

Sequence of KDR kinase (Seq ID No. 3) (P35968 with tags, fused parts or gaps DEL940-989/E990V): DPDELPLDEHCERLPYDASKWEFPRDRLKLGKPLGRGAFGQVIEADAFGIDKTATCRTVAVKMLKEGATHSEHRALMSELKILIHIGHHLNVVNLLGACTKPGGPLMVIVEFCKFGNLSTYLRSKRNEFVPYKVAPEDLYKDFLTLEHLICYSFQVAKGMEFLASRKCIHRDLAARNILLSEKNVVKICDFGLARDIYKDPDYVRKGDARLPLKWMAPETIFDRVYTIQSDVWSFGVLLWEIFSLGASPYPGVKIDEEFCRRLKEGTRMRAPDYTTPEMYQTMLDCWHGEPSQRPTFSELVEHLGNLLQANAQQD
T2 sequence (P10721 with tags, fused parts or gaps): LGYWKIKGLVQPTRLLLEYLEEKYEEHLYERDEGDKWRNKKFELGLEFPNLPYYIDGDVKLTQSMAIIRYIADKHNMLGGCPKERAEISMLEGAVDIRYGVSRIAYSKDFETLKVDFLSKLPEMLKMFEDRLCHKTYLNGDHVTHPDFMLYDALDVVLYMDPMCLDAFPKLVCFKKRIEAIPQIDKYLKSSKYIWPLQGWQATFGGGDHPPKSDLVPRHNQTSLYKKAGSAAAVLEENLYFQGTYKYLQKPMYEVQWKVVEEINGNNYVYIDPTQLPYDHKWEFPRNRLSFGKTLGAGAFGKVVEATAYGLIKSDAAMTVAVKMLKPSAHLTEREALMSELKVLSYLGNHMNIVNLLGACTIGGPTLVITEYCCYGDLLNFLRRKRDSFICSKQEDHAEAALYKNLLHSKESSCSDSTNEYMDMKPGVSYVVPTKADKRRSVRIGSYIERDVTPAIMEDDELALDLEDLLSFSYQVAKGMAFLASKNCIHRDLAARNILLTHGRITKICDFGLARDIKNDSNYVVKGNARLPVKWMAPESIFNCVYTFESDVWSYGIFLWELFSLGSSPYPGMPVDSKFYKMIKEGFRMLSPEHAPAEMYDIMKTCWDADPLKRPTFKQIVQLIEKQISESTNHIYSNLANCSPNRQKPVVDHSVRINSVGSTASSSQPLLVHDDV
T1 sequence (P08581 with tags, fused parts or gaps): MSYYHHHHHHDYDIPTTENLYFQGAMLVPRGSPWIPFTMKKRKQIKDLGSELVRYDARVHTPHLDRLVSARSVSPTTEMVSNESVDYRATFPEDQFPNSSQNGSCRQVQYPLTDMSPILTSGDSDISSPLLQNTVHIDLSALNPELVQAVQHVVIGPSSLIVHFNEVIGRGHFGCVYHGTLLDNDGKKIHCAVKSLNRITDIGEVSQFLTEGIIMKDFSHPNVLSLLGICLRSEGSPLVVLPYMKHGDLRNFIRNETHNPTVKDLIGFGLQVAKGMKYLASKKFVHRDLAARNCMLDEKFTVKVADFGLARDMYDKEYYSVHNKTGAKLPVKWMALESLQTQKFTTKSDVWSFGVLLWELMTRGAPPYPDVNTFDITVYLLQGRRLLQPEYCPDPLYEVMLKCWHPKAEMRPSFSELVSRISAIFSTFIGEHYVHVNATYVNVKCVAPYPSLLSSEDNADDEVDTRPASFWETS

Row | SMILES | IC50 [1] | IC50 [2] | IC50 [3] | IC50 [4] | IC50 [5]
1 | CNc1ccn(-c2ccc(F)cc2)c(=O)c1C(=O)Nc1cc(F)c(Oc2ccnc(-c3cnn(C)c3)c2)cc1F [Example 4, N-(2,5-difluoro-4-((2-(1-methyl-1H-pyrazol-4-yl)pyridin-4-yl)oxy)phenyl)-1-(4-fluorophenyl)-4-(methylamino)-2-oxo-1,2-dihydropyridine-3-carboxamide] | 100 to 1000 nM | > 1000 nM | > 1000 nM | ≤ 100 nM | 100 to 1000 nM
2 | CCOc1ccn(-c2ccc(F)cc2)c(=O)c1C(=O)Nc1cc(F)c(Oc2ccnc(-c3cnn(C(C)C)c3)c2)cc1F [Example 6, N-(2,5-difluoro-4-((2-(1-isopropyl-1H-pyrazol-4-yl)pyridin-4-yl)oxy)phenyl)-4-ethoxy-1-(4-fluorophenyl)-2-oxo-1,2-dihydropyridine-3-carboxamide] | 100 to 1000 nM | > 1000 nM | 100 to 1000 nM | ≤ 100 nM | > 1000 nM
3 | CCOc1ccn(-c2ccc(F)cc2)c(=O)c1C(=O)Nc1cc(F)c(Oc2ccnc(-c3cnn(CC)c3)c2)cc1F [Example 7, 4-ethoxy-N-(4-((2-(1-ethyl-1H-pyrazol-4-yl)pyridin-4-yl)oxy)-2,5-difluorophenyl)-1-(4-fluorophenyl)-2-oxo-1,2-dihydropyridine-3-carboxamide] | ≤ 100 nM | > 1000 nM | ≤ 100 nM | ≤ 100 nM | > 1000 nM
4 | CCOc1ccn(-c2ccc(F)cc2)c(=O)c1C(=O)Nc1cc(F)c(Oc2ccnc(-c3cn[nH]c3)c2)cc1F [Example 8, N-(4-((2-(1H-pyrazol-4-yl)pyridin-4-yl)oxy)-2,5-difluorophenyl)-4-ethoxy-1-(4-fluorophenyl)-2-oxo-1,2-dihydropyridine-3-carboxamide hydrochloride] | 100 to 1000 nM | > 1000 nM | 100 to 1000 nM | ≤ 100 nM | > 1000 nM
5 | Cn1cc(C(=O)Nc2cc(F)c(Oc3ccnc(-c4cnn(C)c4)c3)cc2F)c(=O)c(-c2ccc(F)cc2)c1 [Example 9, N-(2,5-difluoro-4-((2-(1-methyl-1H-pyrazol-4-yl)pyridin-4-yl)oxy)phenyl)-5-(4-fluorophenyl)-1-methyl-4-oxo-1,4-dihydropyridine-3-carboxamide] | – | > 1000 nM | – | ≤ 100 nM | ≤ 100 nM
6 | Cn1cc(-c2cc(Oc3cc(F)c(NC(=O)c4c[nH]cc(-c5ccc(F)cc5)c4=O)cc3F)ccn2)cn1 [Example 10, N-(2,5-difluoro-4-((2-(1-methyl-1H-pyrazol-4-yl)pyridin-4-yl)oxy)phenyl)-5-(4-fluorophenyl)-4-oxo-1,4-dihydropyridine-3-carboxamide] | – | 100 to 1000 nM | – | ≤ 100 nM | ≤ 100 nM
